According to the NIST ThermoML archive (doi:10.1021/je0400052):

Experiments:
[1] = xn = mol fraction of the nth substance listed; conditions: 101.3 kPa, Liquid
[2] = refractive index (Na D-line) (dimensionless); xn = mol fraction of the nth substance listed; conditions: 101.3 kPa, Liquid

CCOC(=O)c1ccccc1 [ethyl benzoate] + Cc1cccc(C)c1
Conditions | mass density, [1] [kg/m3] | refractive index, [2] | viscosity, [1] [mPa·s]
303.15 K, x1 = 0.0887 | 871.6 | 1.4946 | 0.612
303.15 K, x1 = 0.1713 | 887.2 | 1.4957 | 0.676
303.15 K, x1 = 0.2626 | 905.2 | 1.4964 | 0.759
303.15 K, x1 = 0.3553 | 926 | 1.497 | 0.837
303.15 K, x1 = 0.4588 | 946.8 | 1.4974 | 0.931
303.15 K, x1 = 0.5707 | 966.5 | 1.499 | 1.055
303.15 K, x1 = 0.6576 | 981.7 | 1.4995 | 1.161
303.15 K, x1 = 0.7831 | 1002.2 | 1.5003 | 1.352
303.15 K, x1 = 0.8832 | 1018.5 | 1.5011 | 1.5
313.15 K, x1 = 0.0887 | 857.3 | 1.4917 | 0.547
313.15 K, x1 = 0.1713 | 875 | 1.4925 | 0.601
313.15 K, x1 = 0.2626 | 895.5 | 1.4939 | 0.664
313.15 K, x1 = 0.3553 | 917.5 | 1.4955 | 0.732
313.15 K, x1 = 0.4588 | 937.2 | 1.4963 | 0.809
313.15 K, x1 = 0.5707 | 966.5 | 1.4979 | 0.91
313.15 K, x1 = 0.6576 | 971.7 | 1.4984 | 0.997
313.15 K, x1 = 0.7831 | 993.7 | 1.4988 | 1.146
313.15 K, x1 = 0.8832 | 1009.8 | 1.4993 | 1.274

CCOC(=O)c1ccccc1 [ethyl benzoate] + Cc1ccccc1C
Conditions | mass density, [1] [kg/m3] | refractive index, [2] | viscosity, [1] [mPa·s]
303.15 K, x1 = 0.0847 | 887.3 | 1.4994 | 0.758
303.15 K, x1 = 0.1749 | 904.2 | 1.4996 | 0.837
303.15 K, x1 = 0.2686 | 920.9 | 1.4999 | 0.909
303.15 K, x1 = 0.3579 | 937.5 | 1.5001 | 1
303.15 K, x1 = 0.4613 | 954 | 1.5007 | 1.085
303.15 K, x1 = 0.56 | 972.3 | 1.5009 | 1.19
303.15 K, x1 = 0.6668 | 988.1 | 1.501 | 1.312
303.15 K, x1 = 0.7675 | 1001.3 | 1.5011 | 1.433
303.15 K, x1 = 0.8768 | 1021.1 | 1.5013 | 1.566
313.15 K, x1 = 0.0847 | 879.3 | 1.4983 | 0.676
313.15 K, x1 = 0.1749 | 896.1 | 1.4986 | 0.732
313.15 K, x1 = 0.2686 | 913.1 | 1.4989 | 0.8
313.15 K, x1 = 0.3579 | 930.2 | 1.4993 | 0.864
313.15 K, x1 = 0.4613 | 945.7 | 1.4995 | 0.937
313.15 K, x1 = 0.56 | 963.8 | 1.4997 | 1.015
313.15 K, x1 = 0.6668 | 980.8 | 1.4999 | 1.113
313.15 K, x1 = 0.7675 | 992.7 | 1.5001 | 1.208
313.15 K, x1 = 0.8768 | 1010.9 | 1.5003 | 1.31

CCOC(=O)c1ccccc1 [ethyl benzoate] + CCc1ccccc1
Conditions | mass density, [1] [kg/m3] | refractive index, [2] | viscosity, [1] [mPa·s]
303.15 K, x1 = 0.0862 | 875.1 | 1.492 | 0.643
303.15 K, x1 = 0.1804 | 892.6 | 1.4932 | 0.711
303.15 K, x1 = 0.2589 | 910.2 | 1.4934 | 0.767
303.15 K, x1 = 0.3522 | 927.2 | 1.4942 | 0.857
303.15 K, x1 = 0.472 | 950.1 | 1.496 | 0.97
303.15 K, x1 = 0.5625 | 967 | 1.4968 | 1.071
303.15 K, x1 = 0.6722 | 984.9 | 1.4971 | 1.206
303.15 K, x1 = 0.7675 | 1002 | 1.4992 | 1.33
303.15 K, x1 = 0.8678 | 1019 | 1.4998 | 1.496
303.15 K, x1 = 0.9325 | 1040.9 | 1.5003 | 1.615
313.15 K, x1 = 0.0862 | 867 | 1.4911 | 0.57
313.15 K, x1 = 0.1804 | 884.3 | 1.4921 | 0.629
313.15 K, x1 = 0.2589 | 901.3 | 1.493 | 0.682
313.15 K, x1 = 0.3522 | 918.1 | 1.4937 | 0.745
313.15 K, x1 = 0.472 | 941.4 | 1.4954 | 0.844
313.15 K, x1 = 0.5625 | 960.4 | 1.4959 | 0.937
313.15 K, x1 = 0.6722 | 976.2 | 1.4963 | 1.063
313.15 K, x1 = 0.7675 | 993 | 1.4981 | 1.169
313.15 K, x1 = 0.8678 | 1009.7 | 1.4992 | 1.268
313.15 K, x1 = 0.9325 | 1027.4 | 1.4996 | 1.335

CCOC=O [ethyl methanoate] + Cc1cccc(C)c1
Conditions | mass density, [1] [kg/m3] | refractive index, [2] | viscosity, [1] [mPa·s]
303.15 K, x1 = 0.1348 | 858.3 | 1.4892 | 0.524
303.15 K, x1 = 0.2728 | 863.3 | 1.4695 | 0.494
303.15 K, x1 = 0.3968 | 868.7 | 1.4561 | 0.467
303.15 K, x1 = 0.4988 | 873.1 | 1.4391 | 0.449
303.15 K, x1 = 0.6032 | 877.7 | 1.4288 | 0.43
303.15 K, x1 = 0.6923 | 882.8 | 1.4265 | 0.414
303.15 K, x1 = 0.7867 | 888.4 | 1.4055 | 0.398
303.15 K, x1 = 0.8591 | 895 | 1.3875 | 0.386
303.15 K, x1 = 0.9379 | 900.1 | 1.3856 | 0.373
313.15 K, x1 = 0.1348 | 849.8 | 1.482 | 0.479
313.15 K, x1 = 0.2728 | 854.4 | 1.4679 | 0.453
313.15 K, x1 = 0.3968 | 859.5 | 1.4578 | 0.431
313.15 K, x1 = 0.4988 | 864.3 | 1.438 | 0.412
313.15 K, x1 = 0.6032 | 869.2 | 1.4276 | 0.397
313.15 K, x1 = 0.6923 | 874.3 | 1.4253 | 0.384
313.15 K, x1 = 0.7867 | 880.1 | 1.4043 | 0.369
313.15 K, x1 = 0.8591 | 884.1 | 1.385 | 0.357
313.15 K, x1 = 0.9379 | 889.7 | 1.3841 | 0.347
